Consider 13 compounds from ChEMBL document CHEMBL1126340, “Dual-acting thromboxane receptor antagonist/synthase inhibitors: heterocyclic variations” (Bioorg Med Chem Lett, 1992).

One assay deals with T1, Thromboxane-A synthase (Homo sapiens, UniProt P24557).
T1 sequence (P24557 whole entry): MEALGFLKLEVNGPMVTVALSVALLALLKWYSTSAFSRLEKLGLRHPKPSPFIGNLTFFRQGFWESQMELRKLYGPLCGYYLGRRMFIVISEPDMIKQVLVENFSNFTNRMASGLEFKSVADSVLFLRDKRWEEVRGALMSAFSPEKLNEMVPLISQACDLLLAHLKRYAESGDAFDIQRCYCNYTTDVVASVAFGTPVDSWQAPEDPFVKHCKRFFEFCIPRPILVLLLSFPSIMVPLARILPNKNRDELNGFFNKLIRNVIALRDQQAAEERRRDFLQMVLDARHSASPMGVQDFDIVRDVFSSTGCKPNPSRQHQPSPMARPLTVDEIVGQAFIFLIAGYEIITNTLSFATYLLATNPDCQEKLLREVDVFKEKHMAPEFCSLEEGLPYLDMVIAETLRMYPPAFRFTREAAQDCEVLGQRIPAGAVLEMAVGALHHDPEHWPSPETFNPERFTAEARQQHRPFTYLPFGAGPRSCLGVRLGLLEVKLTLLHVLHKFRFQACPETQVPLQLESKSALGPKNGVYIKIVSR
The assay can be described thus: Inhibition of human Thromboxane A2 synthase.

Assay [1] concerns Canis familiaris. Kind of assay: Compound was tested in vivo for inhibition of serum TXB2 formation in conscious dog at a oral dose of 1 mg/kg. The assay is classed as functional. To be noted: Canis lupus familiaris.
The next assay concerns the target T2, Thromboxane A2 receptor (Homo sapiens, UniProt P21731).
T2 sequence (P21731 whole entry): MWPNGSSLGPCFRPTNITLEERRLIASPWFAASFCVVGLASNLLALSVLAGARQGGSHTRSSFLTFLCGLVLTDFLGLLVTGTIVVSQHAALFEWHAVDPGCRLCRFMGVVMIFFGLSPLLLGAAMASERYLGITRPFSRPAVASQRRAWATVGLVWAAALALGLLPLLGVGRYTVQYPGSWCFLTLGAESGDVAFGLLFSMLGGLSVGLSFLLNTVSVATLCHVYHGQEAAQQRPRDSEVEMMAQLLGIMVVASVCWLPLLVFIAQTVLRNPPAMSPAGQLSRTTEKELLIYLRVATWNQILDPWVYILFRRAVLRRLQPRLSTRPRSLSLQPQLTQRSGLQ
The assay can be described thus: Antagonistic potency against Thromboxane A2 receptor expressed as inhibition of U 46619-induced platelet aggregation in human platelet rich plasma. The format is functional. To be noted: read-out: pA2 (converted).

The subject of assay [2] is Canis familiaris. The assay can be described thus: Compound was tested in vivo for blockade of U 46619-induced platelet aggregation in conscious dog at a oral dose of 1 mg/kg; Expressed as Concentration ratio. The format is functional, Canis lupus familiaris.

For the compound `CC1(C)OC[C@@H](C/C=C\CCC(=O)O)[C@@H](c2ccnnc2)O1`, half-maximal inhibition at Thromboxane-A synthase (IC50) required 7400 nM. Turning to `Cc1ccc(OC(C)(C)[C@H]2OC[C@@H](C/C=C\CCC(=O)O)[C@@H](c3cncs3)O2)c([N+](=O)[O-])c1`, the inhibition in vivo (commonly how much of the control response was suppressed) at 1 mg/kg in the assay on Canis familiaris [1] stood at 60%. It took 18 nM to reach half-maximal inhibition against Thromboxane-A synthase (IC50). Also, on Thromboxane A2 receptor, the Kb is 5.01 nM. Further, in the assay on Canis familiaris [2], the Activity was greater than 50. Take `CC1(C)OC[C@@H](C/C=C\CCC(=O)O)[C@@H](c2cccnc2)O1`: the IC50 (in general, the concentration that gives 50% inhibition) against Thromboxane-A synthase worked out at 120 nM. Still for that read-out and setting: in the case of `CC1(C)OC[C@@H](C/C=C\CCC(=O)O)[C@@H](c2cncs2)O1` it was 80 nM. `Cc1ccc(OC(C)(C)[C@H]2OC[C@@H](C/C=C\CCC(=O)O)[C@@H](c3cccnc3)O2)c([N+](=O)[O-])c1` came in with an IC50 on Thromboxane-A synthase of 19 nM. Besides, at Thromboxane A2 receptor, the Kb was 3.98 nM.

As for `Cn1cncc1[C@H]1OC(C)(C)OC[C@H]1C/C=C\CCC(=O)O`, the IC50 on Thromboxane-A synthase amounted to 70 nM.

As to `CC1(C)OC[C@@H](C/C=C\CCC(=O)O)[C@@H](c2cnccn2)O1`, the IC50 on Thromboxane-A synthase is greater than 10000 nM. As for `CCCCCCn1cncc1[C@H]1O[C@@H](C(C)(C)Oc2ccc(C)cc2[N+](=O)[O-])OC[C@H]1C/C=C\CCC(=O)O`, the IC50 against Thromboxane-A synthase stood at 490 nM. The Kb at Thromboxane A2 receptor is 200 nM. On the same counts, the results for `Cc1ccc(OC(C)(C)[C@H]2OC[C@@H](C/C=C\CCC(=O)O)[C@@H](c3cncn3C)O2)c([N+](=O)[O-])c1` are 50 nM and 3.98 nM. On to `CC1(C)OC[C@@H](C/C=C\CCC(=O)O)[C@@H](c2cccs2)O1`, for which the IC50 against Thromboxane-A synthase came out at 4100 nM. On to `CC1(C)OC[C@@H](C/C=C\CCC(=O)O)[C@@H](c2cnco2)O1`, for which the IC50 on Thromboxane-A synthase is greater than 10000 nM.

On to `CCCCCCn1cncc1[C@H]1OC(C)(C)OC[C@H]1C/C=C\CCC(=O)O`, for which the midpoint of inhibition against Thromboxane-A synthase, the IC50, lay at 900 nM. At Thromboxane-A synthase, `CC1(C)OC[C@@H](C/C=C\CCC(=O)O)[C@@H](c2cncnc2)O1` displayed an IC50 greater than 10000 nM.
